Measured values as given in US6489485B2, “Para-amine substituted phenylamide glucokinase activators” (Hoffmann-La Roche Inc., priority 2000, dated 2002).

Structure (SMILES)	melting point [°C]
O=C(Nc1ccc(C(CC2CCCC2)C(=O)Nc2nccs2)cc1)c1ccccc1 (stereo not drawn) [Example 1]	285 to 290
O=C(Cc1cccs1)Nc1ccc(C(CC2CCCC2)C(=O)Nc2nccs2)cc1 (stereo not drawn) [Example 2, 3-Cyclopentyl-N-thiazol-2-yl-2-[4-(2-thiophen-2-yl-acetylamino)-phenyl]-propionamide]	220 to 221
O=C(Nc1nccs1)C(CC1CCCC1)c1ccc(NS(=O)(=O)c2ccc([N+](=O)[O-])cc2)cc1 (stereo not drawn) [Example 3, 3-Cyclopentyl-2-[4-(4-nitro-benzenesulfonylamino)-phenyl]-N-thiazol-2-yl-propionamide]	120 to 125
O=C(Nc1ccc(C(CC2CCCC2)C(=O)Nc2nccs2)cc1)c1ccncc1 (stereo not drawn) [Example 4, N-{4-[2-Cyclopentyl-1-(thiazol-2-ylcarbamoyl)-ethyl]-phenyl}-isonicotinamide]	225 to 230
O=C(Nc1ccc(C(CC2CCCC2)C(=O)Nc2nccs2)cc1)c1ccc([N+](=O)[O-])cc1 (stereo not drawn) [Example 5, N-{4-[2-Cyclopentyl-1-(thiazol-2-ylcarbamoyl)-ethyl]-phenyl}-4-nitro-benzamide]	236 to 238
COC(=O)C(=O)Nc1ccc(C(CC2CCCC2)C(=O)Nc2nccs2)cc1 (stereo not drawn) [Example 6, N-{4-[2-Cyclopentyl-1-(thiazol-2-ylcarbamoyl)-ethyl]-phenyl}-oxalamic acid methyl ester]	95 to 98
CC(=O)OCC(=O)Nc1ccc(C(CC2CCCC2)C(=O)Nc2nccs2)cc1 (stereo not drawn) [Example 7, Acetic acid {4-[2-cyclopentyl-1-(thiazol-2-ylcarbamoyl)-ethyl]-phenylcarbamoyl}-methyl ester]	90 to 95
CN(C)S(=O)(=O)Nc1ccc(C(CC2CCCC2)C(=O)Nc2nccs2)cc1 (stereo not drawn) [Example 8, N-{4-[2-Cyclopentyl-1-(thiazol-2-ylcarbamoyl)-ethyl]-phenyl}-dimethylsulfamide]	110 to 112
O=C(Nc1ccc(C(CC2CCCC2)C(=O)Nc2nccs2)cc1)c1cccnc1 (stereo not drawn) [Example 9, N-{4-[2-Cyclopentyl-1-(thiazol-2-ylcarbamoyl)-ethyl]-phenyl}-nicotinamide]	240 to 242

Further lines, results first:

melting point [°C]	Structure (SMILES)
222 to 223	CCOC(=O)c1csc(NC(=O)C(CC2CCCC2)c2ccc(NC(=O)c3cccnc3)cc2)n1 (stereo not drawn) [Example 10, 2-(3-Cyclopentyl-2-{4-[(pyridine-3-carbonyl)-amino]-phenyl}propionylamino)-thiazole-4-carboxylic acid ethyl ester]
195 to 200	CCOC(=O)Cc1csc(NC(=O)C(CC2CCCC2)c2ccc(NC(=O)c3cccnc3)cc2)n1 (stereo not drawn) [Example 11, [2-(3-Cyclopentyl-2-{4-[(pyridine-3-carbonyl)-amino]-phenyl}-propionylamino)-thiazol-4-yl]-acetic acid ethyl ester]
85 to 90	CS(=O)(=O)Nc1ccc(C(CC2CCCC2)C(=O)Nc2nccs2)cc1 (stereo not drawn) [Example 12, 3-Cyclopentyl-2-(4-methanesulfonylamino-phenyl)-N-thiazol-2-yl-propionamide]
70 to 74	O=C(Nc1nccs1)C(CC1CCCC1)c1ccc(NS(=O)(=O)C(F)(F)F)cc1 (stereo not drawn) [Example 13, 3-Cyclopentyl-N-thiazol-2-yl-2-(4-trifluoromethanesulfonylamino-phenyl)-propionamide]
160 to 163	O=C(Nc1ccc(C(CC2CCCC2)C(=O)Nc2ccccn2)cc1)c1cccnc1 (stereo not drawn) [Example 15, N-{4-[2-Cyclopentyl-1-(pyridin-2-ylcarbamoyl)-ethyl]-phenyl}-nicotinamide]
110 to 111	COC(=O)c1ccc(NC(=O)C(CC2CCCC2)c2ccc(NC(=O)c3cccnc3)cc2)nc1 (stereo not drawn) [Example 16, 6-(3-Cyclopentyl-2-{4-[(pyridine-3-carbonyl)-amino]-phenyl}-propionylamino)-nicotinic acid methyl ester]
